Data from US12227500B2, “Substituted pyrrolo[2,3-b]pyridines for suppressing toxic endoplasmic reticulum stress” (THE TRUSTEES OF COLUMBIA UNIVERSITY IN THE CITY OF NEW YORK, priority 2018, dated 2025).

Assays:
Test in all cases: Radiolabeled ATP kinase assay, panel of 371 kinases (Table S6)
Format in all cases: biochemical
[1] = target: T1, panel of 371 human kinases (Homo sapiens, UniProt Q96KB5); conditions: PBK/TOPK; 0.1 μM; 10 μM ATP; read-out: % Enzyme Activity (relative to DMSO controls)
T1 construct: purchased Reaction Biology Corp
Text: (§1) ; FIG. 38C). […]. Further targeted analyses, such as genetic knock-down or knock-out, may be warranted to parse the role of these additional kinases in our model of neurodegeneration.

[2] = target: T2, panel of 371 human kinases (Homo sapiens, UniProt Q14680); conditions: MELK; 0.1 μM; 10 μM ATP; read-out: % Enzyme Activity (relative to DMSO controls)
T2 construct: purchased Reaction Biology Corp
Text: as §1

[3] = target: T3, panel of 371 human kinases (Homo sapiens, UniProt P22455); conditions: FGFR4; 0.1 μM; 10 μM ATP; read-out: % Enzyme Activity (relative to DMSO controls)
T3 construct: purchased Reaction Biology Corp
Text: as §1

[4] = target: T4, panel of 371 human kinases (Homo sapiens, UniProt P17948); conditions: FLT1/VEGFR1; 0.1 μM; 10 μM ATP; read-out: % Enzyme Activity (relative to DMSO controls)
T4 construct: purchased Reaction Biology Corp
Text: as §1

[5] = target: T5, panel of 371 human kinases (Homo sapiens, UniProt P36896); conditions: ALK4/ACVR1B; 0.1 μM; 10 μM ATP; read-out: % Enzyme Activity (relative to DMSO controls)
T5 construct: purchased Reaction Biology Corp
Text: as §1

[6] = target: T6, panel of 371 human kinases (Homo sapiens, UniProt Q9UBE8); conditions: NLK; 0.1 μM; 10 μM ATP; read-out: % Enzyme Activity (relative to DMSO controls)
T6 construct: purchased Reaction Biology Corp
Text: as §1

[7] = target: T7, panel of 371 human kinases (Homo sapiens, UniProt P27448); conditions: MARK3; 0.1 μM; 10 μM ATP; read-out: % Enzyme Activity (relative to DMSO controls)
T7 construct: purchased Reaction Biology Corp
Text: as §1

[8] = target: T8, panel of 371 human kinases (Homo sapiens, UniProt P28482); conditions: ERK2/MAPK1; 0.1 μM; 10 μM ATP; read-out: % Enzyme Activity (relative to DMSO controls)
T8 construct: purchased Reaction Biology Corp
Text: as §1

[9] = target: T9, panel of 371 human kinases (Homo sapiens, UniProt P07947); conditions: YES/YES1; 0.1 μM; 10 μM ATP; read-out: % Enzyme Activity (relative to DMSO controls)
T9 construct: purchased Reaction Biology Corp
Text: as §1

[10] = target: T10, panel of 371 human kinases (Homo sapiens, UniProt P11309); conditions: PIM1; 0.1 μM; 10 μM ATP; read-out: % Enzyme Activity (relative to DMSO controls)
T10 construct: purchased Reaction Biology Corp
Text: as §1

[11] = target: T11, panel of 371 human kinases (Homo sapiens, UniProt P29320); conditions: EPHA3; 0.1 μM; 10 μM ATP; read-out: % Enzyme Activity (relative to DMSO controls)
T11 construct: purchased Reaction Biology Corp
Text: as §1

[12] = target: T12, panel of 371 human kinases (Homo sapiens, UniProt Q13873); conditions: BMPR2; 0.1 μM; 10 μM ATP; read-out: % Enzyme Activity (relative to DMSO controls)
T12 construct: purchased Reaction Biology Corp
Text: as §1

[13] = target: T13, panel of 371 human kinases (Homo sapiens, UniProt Q5S007); conditions: LRRK2; 0.1 μM; 10 μM ATP; read-out: % Enzyme Activity (relative to DMSO controls)
T13 construct: purchased Reaction Biology Corp
Text: as §1

[14] = target: T14, panel of 371 human kinases (Homo sapiens, UniProt Q96SB4); conditions: SRPK1; 0.1 μM; 10 μM ATP; read-out: % Enzyme Activity (relative to DMSO controls)
T14 construct: purchased Reaction Biology Corp
Text: as §1

[15] = target: T15, panel of 371 human kinases (Homo sapiens, UniProt O75116); conditions: ROCK2; 0.1 μM; 10 μM ATP; read-out: % Enzyme Activity (relative to DMSO controls)
T15 construct: purchased Reaction Biology Corp
Text: as §1

[16] = target: T16, panel of 371 human kinases (Homo sapiens, UniProt Q8TDC3); conditions: BRSK1; 0.1 μM; 10 μM ATP; read-out: % Enzyme Activity (relative to DMSO controls)
T16 construct: purchased Reaction Biology Corp
Text: as §1

[17] = target: T17, panel of 371 human kinases (Homo sapiens, UniProt O14757); conditions: CHK1; 0.1 μM; 10 μM ATP; read-out: % Enzyme Activity (relative to DMSO controls)
T17 construct: purchased Reaction Biology Corp
Text: as §1

[18] = target: T18, panel of 371 human kinases (Homo sapiens, UniProt P49760); conditions: CLK2; 0.1 μM; 10 μM ATP; read-out: % Enzyme Activity (relative to DMSO controls)
T18 construct: purchased Reaction Biology Corp
Text: as §1

[19] = target: T19, panel of 371 human kinases (Homo sapiens, UniProt P19784); conditions: CK2a2; 0.1 μM; 10 μM ATP; read-out: % Enzyme Activity (relative to DMSO controls)
T19 construct: purchased Reaction Biology Corp
Text: as §1

[20] = target: T20, panel of 371 human kinases (Homo sapiens, UniProt O94804); conditions: LOK/STK10; 0.1 μM; 10 μM ATP; read-out: % Enzyme Activity (relative to DMSO controls)
T20 construct: purchased Reaction Biology Corp
Text: as §1

[21] = target: T21, panel of 371 human kinases (Homo sapiens, UniProt P23458); conditions: JAK1; 0.1 μM; 10 μM ATP; read-out: % Enzyme Activity (relative to DMSO controls)
T21 construct: purchased Reaction Biology Corp
Text: as §1

[22] = target: T22, panel of 371 human kinases (Homo sapiens, UniProt P51451); conditions: BLK; 0.1 μM; 10 μM ATP; read-out: % Enzyme Activity (relative to DMSO controls)
T22 construct: purchased Reaction Biology Corp
Text: as §1

[23] = target: T23, panel of 371 human kinases (Homo sapiens, UniProt P43250); conditions: GRK6; 0.1 μM; 10 μM ATP; read-out: % Enzyme Activity (relative to DMSO controls)
T23 construct: purchased Reaction Biology Corp
Text: as §1

[24] = target: T24, panel of 371 human kinases (Homo sapiens, UniProt Q15139); conditions: PKCmu/PRKD1; 0.1 μM; 10 μM ATP; read-out: % Enzyme Activity (relative to DMSO controls)
T24 construct: purchased Reaction Biology Corp
Text: as §1

T6 sequence (Q9UBE8 whole entry): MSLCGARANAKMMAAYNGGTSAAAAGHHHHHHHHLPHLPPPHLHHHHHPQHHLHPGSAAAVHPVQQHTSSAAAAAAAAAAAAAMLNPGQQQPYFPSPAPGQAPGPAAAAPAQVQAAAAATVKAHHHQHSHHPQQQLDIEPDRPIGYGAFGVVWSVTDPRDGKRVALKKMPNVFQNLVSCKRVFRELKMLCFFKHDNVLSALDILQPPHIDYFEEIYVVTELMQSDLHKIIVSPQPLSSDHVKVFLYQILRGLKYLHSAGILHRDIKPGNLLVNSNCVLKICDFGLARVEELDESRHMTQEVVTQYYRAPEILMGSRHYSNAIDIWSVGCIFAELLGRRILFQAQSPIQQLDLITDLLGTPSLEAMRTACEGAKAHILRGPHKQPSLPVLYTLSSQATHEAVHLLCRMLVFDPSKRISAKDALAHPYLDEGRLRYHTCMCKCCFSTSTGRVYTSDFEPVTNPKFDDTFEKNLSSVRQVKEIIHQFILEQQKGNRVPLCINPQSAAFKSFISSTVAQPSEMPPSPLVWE
T4 sequence (P17948 27-1338): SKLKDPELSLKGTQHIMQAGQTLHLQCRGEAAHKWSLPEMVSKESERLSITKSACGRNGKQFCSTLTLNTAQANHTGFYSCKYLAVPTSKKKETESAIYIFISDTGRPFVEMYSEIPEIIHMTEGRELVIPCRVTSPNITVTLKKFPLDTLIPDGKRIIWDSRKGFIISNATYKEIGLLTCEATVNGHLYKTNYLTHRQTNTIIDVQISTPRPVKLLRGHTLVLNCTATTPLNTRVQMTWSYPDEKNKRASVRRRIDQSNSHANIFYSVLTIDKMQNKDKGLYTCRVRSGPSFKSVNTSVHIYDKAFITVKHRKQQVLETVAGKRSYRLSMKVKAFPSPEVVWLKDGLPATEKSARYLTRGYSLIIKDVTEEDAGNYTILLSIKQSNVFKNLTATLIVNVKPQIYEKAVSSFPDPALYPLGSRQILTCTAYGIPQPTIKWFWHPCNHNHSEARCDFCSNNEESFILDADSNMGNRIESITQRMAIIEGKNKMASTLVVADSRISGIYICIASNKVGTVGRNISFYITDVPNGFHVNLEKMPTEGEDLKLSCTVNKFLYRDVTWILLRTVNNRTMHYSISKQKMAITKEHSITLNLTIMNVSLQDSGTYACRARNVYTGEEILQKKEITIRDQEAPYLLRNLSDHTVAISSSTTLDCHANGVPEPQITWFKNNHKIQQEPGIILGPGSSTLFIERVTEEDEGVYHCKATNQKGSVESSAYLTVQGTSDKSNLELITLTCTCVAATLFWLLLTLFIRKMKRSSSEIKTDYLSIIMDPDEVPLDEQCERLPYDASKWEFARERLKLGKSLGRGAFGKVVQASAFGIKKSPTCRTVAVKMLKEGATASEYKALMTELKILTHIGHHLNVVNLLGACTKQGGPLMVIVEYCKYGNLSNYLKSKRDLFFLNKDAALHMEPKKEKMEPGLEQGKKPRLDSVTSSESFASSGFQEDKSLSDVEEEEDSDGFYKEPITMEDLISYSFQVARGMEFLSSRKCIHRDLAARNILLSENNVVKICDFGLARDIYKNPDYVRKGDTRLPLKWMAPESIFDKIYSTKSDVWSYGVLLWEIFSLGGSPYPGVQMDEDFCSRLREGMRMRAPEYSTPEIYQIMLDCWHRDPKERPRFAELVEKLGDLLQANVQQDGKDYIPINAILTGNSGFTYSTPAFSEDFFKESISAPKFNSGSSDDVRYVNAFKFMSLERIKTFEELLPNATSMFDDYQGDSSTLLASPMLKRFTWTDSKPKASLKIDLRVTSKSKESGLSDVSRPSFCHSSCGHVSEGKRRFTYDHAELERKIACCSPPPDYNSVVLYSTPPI
T3 sequence (P22455 22-802): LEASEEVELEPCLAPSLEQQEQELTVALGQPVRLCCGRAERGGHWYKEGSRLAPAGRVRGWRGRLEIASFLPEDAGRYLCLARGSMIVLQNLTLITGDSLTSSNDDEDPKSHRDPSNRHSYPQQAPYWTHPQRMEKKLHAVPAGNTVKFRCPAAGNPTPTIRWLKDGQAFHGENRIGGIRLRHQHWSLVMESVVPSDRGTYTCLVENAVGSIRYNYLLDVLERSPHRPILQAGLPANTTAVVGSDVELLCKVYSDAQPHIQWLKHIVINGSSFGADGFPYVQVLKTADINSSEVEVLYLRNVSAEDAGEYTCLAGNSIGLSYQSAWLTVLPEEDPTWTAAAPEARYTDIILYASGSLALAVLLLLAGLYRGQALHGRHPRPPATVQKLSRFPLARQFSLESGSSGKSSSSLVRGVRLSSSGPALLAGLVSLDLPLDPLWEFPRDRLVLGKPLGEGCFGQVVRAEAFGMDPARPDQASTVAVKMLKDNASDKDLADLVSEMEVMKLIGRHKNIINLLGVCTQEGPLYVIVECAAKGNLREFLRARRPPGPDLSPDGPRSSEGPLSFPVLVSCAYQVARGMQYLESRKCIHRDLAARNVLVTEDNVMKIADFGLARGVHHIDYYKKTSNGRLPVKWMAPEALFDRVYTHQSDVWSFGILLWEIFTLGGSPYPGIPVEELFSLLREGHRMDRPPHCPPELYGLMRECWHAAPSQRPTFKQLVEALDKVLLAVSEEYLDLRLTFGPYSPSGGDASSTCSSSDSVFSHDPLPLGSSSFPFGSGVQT
T1 sequence (Q96KB5 whole entry): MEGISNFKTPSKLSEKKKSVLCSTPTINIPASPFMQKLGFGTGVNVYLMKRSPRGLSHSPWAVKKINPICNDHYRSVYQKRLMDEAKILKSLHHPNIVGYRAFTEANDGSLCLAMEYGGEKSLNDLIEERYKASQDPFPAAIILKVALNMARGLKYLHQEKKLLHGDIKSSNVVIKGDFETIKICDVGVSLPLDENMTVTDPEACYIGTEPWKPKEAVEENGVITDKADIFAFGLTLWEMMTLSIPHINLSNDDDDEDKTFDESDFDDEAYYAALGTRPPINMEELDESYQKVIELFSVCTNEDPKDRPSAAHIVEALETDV
T10 sequence (P11309 whole entry): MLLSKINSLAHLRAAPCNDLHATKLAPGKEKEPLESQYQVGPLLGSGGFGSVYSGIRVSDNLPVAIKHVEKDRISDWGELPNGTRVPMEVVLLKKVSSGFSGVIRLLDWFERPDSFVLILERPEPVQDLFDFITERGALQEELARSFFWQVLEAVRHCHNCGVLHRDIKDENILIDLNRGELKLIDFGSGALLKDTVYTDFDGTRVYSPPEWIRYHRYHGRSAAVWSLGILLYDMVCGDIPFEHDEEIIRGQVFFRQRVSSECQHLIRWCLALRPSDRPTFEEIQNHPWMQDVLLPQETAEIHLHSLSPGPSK
T19 sequence (P19784 whole entry): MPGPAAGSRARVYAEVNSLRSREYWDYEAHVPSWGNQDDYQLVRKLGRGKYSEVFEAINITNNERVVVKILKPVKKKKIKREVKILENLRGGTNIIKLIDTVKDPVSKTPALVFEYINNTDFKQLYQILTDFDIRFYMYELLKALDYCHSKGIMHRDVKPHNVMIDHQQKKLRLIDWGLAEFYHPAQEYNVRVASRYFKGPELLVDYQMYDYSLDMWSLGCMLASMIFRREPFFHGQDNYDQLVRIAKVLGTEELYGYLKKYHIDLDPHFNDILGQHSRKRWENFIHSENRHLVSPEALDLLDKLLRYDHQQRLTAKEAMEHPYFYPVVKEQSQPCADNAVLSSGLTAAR
T18 sequence (P49760 whole entry): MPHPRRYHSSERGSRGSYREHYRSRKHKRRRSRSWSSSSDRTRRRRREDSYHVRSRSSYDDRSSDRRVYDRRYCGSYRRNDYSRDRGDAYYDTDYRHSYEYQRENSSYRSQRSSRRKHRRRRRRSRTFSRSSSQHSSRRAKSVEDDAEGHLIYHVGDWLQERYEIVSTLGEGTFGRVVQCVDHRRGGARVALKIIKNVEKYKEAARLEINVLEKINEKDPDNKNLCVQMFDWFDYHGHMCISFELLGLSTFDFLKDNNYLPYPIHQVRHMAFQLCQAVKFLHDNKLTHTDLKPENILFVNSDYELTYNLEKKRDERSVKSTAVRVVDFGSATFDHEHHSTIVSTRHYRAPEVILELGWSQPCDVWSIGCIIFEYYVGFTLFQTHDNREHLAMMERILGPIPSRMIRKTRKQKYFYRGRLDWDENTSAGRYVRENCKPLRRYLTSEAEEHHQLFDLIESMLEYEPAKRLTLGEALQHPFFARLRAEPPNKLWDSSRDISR
T17 sequence (O14757 whole entry): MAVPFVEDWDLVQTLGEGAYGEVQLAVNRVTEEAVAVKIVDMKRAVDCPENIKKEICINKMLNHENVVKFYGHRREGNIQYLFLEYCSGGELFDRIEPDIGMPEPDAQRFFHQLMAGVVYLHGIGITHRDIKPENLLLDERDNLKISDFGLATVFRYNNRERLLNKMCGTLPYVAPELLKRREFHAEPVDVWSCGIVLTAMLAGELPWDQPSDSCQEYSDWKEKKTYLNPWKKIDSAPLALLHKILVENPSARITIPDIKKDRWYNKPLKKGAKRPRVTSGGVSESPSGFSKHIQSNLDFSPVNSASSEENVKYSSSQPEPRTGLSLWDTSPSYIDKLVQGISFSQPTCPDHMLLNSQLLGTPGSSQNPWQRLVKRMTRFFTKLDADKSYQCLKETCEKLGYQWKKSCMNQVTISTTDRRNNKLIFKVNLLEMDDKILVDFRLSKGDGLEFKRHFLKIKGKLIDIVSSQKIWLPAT
T8 sequence (P28482 whole entry): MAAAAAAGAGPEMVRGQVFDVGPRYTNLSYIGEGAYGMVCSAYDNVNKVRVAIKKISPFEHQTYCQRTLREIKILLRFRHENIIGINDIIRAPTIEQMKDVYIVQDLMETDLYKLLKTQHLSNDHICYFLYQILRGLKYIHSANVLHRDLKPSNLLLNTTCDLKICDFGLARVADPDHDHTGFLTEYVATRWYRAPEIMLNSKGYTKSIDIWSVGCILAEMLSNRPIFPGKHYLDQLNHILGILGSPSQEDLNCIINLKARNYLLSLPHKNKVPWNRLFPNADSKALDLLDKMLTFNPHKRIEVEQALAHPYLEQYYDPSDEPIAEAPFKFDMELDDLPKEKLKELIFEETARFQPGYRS

Row | Structure (SMILES) | remaining activity at 0.1 µM [1] [%] | remaining activity at 0.1 µM [2] [%] | remaining activity at 0.1 µM [3] [%] | remaining activity at 0.1 µM [4] [%] | remaining activity at 0.1 µM [5] [%] | remaining activity at 0.1 µM [6] [%] | remaining activity at 0.1 µM [7] [%] | remaining activity at 0.1 µM [8] [%] | remaining activity at 0.1 µM [9] [%] | remaining activity at 0.1 µM [10] [%] | remaining activity at 0.1 µM [11] [%] | remaining activity at 0.1 µM [12] [%] | remaining activity at 0.1 µM [13] [%] | remaining activity at 0.1 µM [14] [%] | remaining activity at 0.1 µM [15] [%] | remaining activity at 0.1 µM [16] [%] | remaining activity at 0.1 µM [17] [%] | remaining activity at 0.1 µM [18] [%] | remaining activity at 0.1 µM [19] [%] | remaining activity at 0.1 µM [20] [%] | also measured
1 | CN1CCN(Cc2ccc(-c3cnc4[nH]cc(-c5ccc6[nH]ccc6c5)c4c3)cc2)CC1 [Compound 1, 3-(1H-Indol-5-yl)-5-(4-((4-methylpiperazin-1-yl)methyl)phenyl)-1H-pyrrolo[2,3-b]pyridine, reference compound] | 96.8 | 48.1 | 97.2 | 88.2 | 100 | 101 | 83.2 | 104 | 96.6 | 93.2 | 99.8 | 90.5 | 58.8 | 104 | 71.1 | 80.8 | 90 | 48.2 | 84.3 | 73.2 | remaining activity at 0.1 µM [21]: 103%; remaining activity at 0.1 µM [22]: 99.5%; remaining activity at 0.1 µM [23]: 91.5%; remaining activity at 0.1 µM [24]: 24.4%
2 | OCCN1CCN(Cc2ccc(-c3cnc4[nH]cc(-c5cccc(Cl)c5)c4c3)cc2)CC1 [Compound 12k, 2-(4-(4-(3-(3-Chlorophenyl)-1H-pyrrolo[2,3-b]pyridin-5-yl)benzyl)piperazin-1-yl)ethan-1-ol] | 97.1 | 71 | 100 | 90.9 | 95.9 | 94.3 | 46.6 | 101 | 109 | 98.5 | 98.2 | 90.3 | 17 | 100 | 55.6 | 83.6 | 75 | 55.8 | 89 | 59.1 | remaining activity at 0.1 µM [21]: 90.5%; remaining activity at 0.1 µM [22]: 101%; remaining activity at 0.1 µM [23]: 95.2%; remaining activity at 0.1 µM [24]: 3.95%
